ChEMBL document CHEMBL3091391, “An assay for human telomeric G-quadruplex DNA binding drugs” (Bioorg Med Chem Lett, 2013)
The source made the active and inactive calls. The calls are words filed in the database; no cut-off is given here.

Tests used:
Homo sapiens [1] = organism: Homo sapiens; experiment: Binding affinity to human d[AGGG(TTAGGG)3] telomeric G-quadruplex DNA by fluorescence-based assay
Homo sapiens [2] = organism: Homo sapiens; experiment: Binding affinity to human telomeric G-quadruplex DNA
[3] = Binding affinity to d(G4C4)2 duplex DNA (unknown origin) by fluorescence-based assay
Homo sapiens [4] = organism: Homo sapiens; experiment: Binding affinity to human d[AGGG(TTAGGG)3] telomeric G-quadruplex DNA after 1 to 12 hrs by titrimetric analysis in presence of potassium ions
Homo sapiens [5] = organism: Homo sapiens; experiment: Binding affinity to human d[AGGG(TTAGGG)3] telomeric G-quadruplex DNA after 1 to 12 hrs by titrimetric analysis in presence of sodium ions
Homo sapiens [6] = organism: Homo sapiens; experiment: Selectivity ratio of binding affinity for human d[AGGG(TTAGGG)3] telomeric G-quadruplex DNA in presence of sodium ions to binding affinity for human d[AGGG(TTAGGG)3] telomeric G-quadruplex DNA in presence of potassium ions

Activity (Homo sapiens [1])	Compound	also measured
inactive	NC[C@@H]1O[C@H](O[C@H]2[C@@H](O)[C@H](O[C@@H]3[C@@H](O)[C@H](N)C[C@H](N)[C@H]3O[C@H]3O[C@H](CN)[C@@H](O)[C@H](O)[C@H]3N)O[C@@H]2CNC(=S)NCCCNC(=S)NCc2ccc3c(c2)C(=O)c2ccccc2C3=O)[C@H](N)[C@@H](O)[C@@H]1O	–
inactive	NC[C@@H]1O[C@H](O[C@H]2[C@@H](O)[C@H](O[C@@H]3[C@@H](O)[C@H](N)C[C@H](N)[C@H]3O[C@H]3O[C@H](CN)[C@@H](O)[C@H](O)[C@H]3N)O[C@@H]2CNC(=S)NCCNC(=S)NCc2ccc3c(c2)C(=O)c2ccccc2C3=O)[C@H](N)[C@@H](O)[C@@H]1O	–
inactive	NC[C@@H]1O[C@H](O[C@H]2[C@@H](O)[C@H](O[C@@H]3[C@@H](O)[C@H](N)C[C@H](N)[C@H]3O[C@H]3O[C@H](CN)[C@@H](O)[C@H](O)[C@H]3N)O[C@@H]2CSCCNC(=S)Nc2ccc3c(c2)C(=O)c2ccccc2C3=O)[C@H](N)[C@@H](O)[C@@H]1O	–
inactive	NC[C@@H]1O[C@H](O[C@H]2[C@@H](O)[C@H](O[C@@H]3[C@@H](O)[C@H](N)C[C@H](N)[C@H]3O[C@H]3O[C@H](CN)[C@@H](O)[C@H](O)[C@H]3N)O[C@@H]2CSCCNC(=S)NCCCNC(=S)NCc2ccc3c(c2)C(=O)c2ccccc2C3=O)[C@H](N)[C@@H](O)[C@@H]1O	–
inactive	NC[C@@H]1O[C@H](O[C@H]2[C@@H](O)[C@H](O[C@@H]3[C@@H](O)[C@H](N)C[C@H](N)[C@H]3O[C@H]3O[C@H](CN)[C@@H](O)[C@H](O)[C@H]3N)O[C@@H]2CNC(=S)NCCCOCCCCOCCCNC(=S)NCc2ccc3c(c2)C(=O)c2ccccc2C3=O)[C@H](N)[C@@H](O)[C@@H]1O	–
inactive	NC[C@@H]1O[C@H](O[C@H]2[C@@H](O)[C@H](O[C@@H]3[C@@H](O)[C@H](N)C[C@H](N)[C@H]3O[C@H]3O[C@H](CN)[C@@H](O)[C@H](O)[C@H]3N)O[C@@H]2CNC(=S)Nc2ccc3c(c2)C(=O)c2ccccc2C3=O)[C@H](N)[C@@H](O)[C@@H]1O	–
–	NC[C@@H]1O[C@H](O[C@H]2[C@@H](O)[C@H](O[C@@H]3[C@@H](O)[C@H](N)C[C@H](N)[C@H]3O[C@H]3O[C@H](CN)[C@@H](O)[C@H](O)[C@H]3N)O[C@@H]2CSCCNC(=S)NCCCNC(=O)c2ccc3c(c2)C(=O)c2ccccc2C3=O)[C@H](N)[C@@H](O)[C@@H]1O	Ka (Homo sapiens [2]): 1.25 ×10⁷ /M
inactive	NC[C@@H]1O[C@H](O[C@H]2[C@@H](O)[C@H](O[C@@H]3[C@@H](O)[C@H](N)C[C@H](N)[C@H]3O[C@H]3O[C@H](CN)[C@@H](O)[C@H](O)[C@H]3N)O[C@@H]2CSCCNC(=S)NCCNC(=S)NCc2ccc3c(c2)C(=O)c2ccccc2C3=O)[C@H](N)[C@@H](O)[C@@H]1O	–
inactive	NCC1O[C@H](O[C@H]2[C@@H](O)[C@H](O[C@@H]3[C@@H](O)[C@H](N)C[C@H](N)[C@H]3O[C@H]3O[C@H](CN)[C@@H](O)[C@H](O)[C@H]3N)O[C@@H]2CNC(=S)NCc2ccc3c(c2)C(=O)c2ccccc2C3=O)[C@H](N)[C@@H](O)[C@@H]1O (single isomer, unassigned)	–
inactive	NC[C@@H]1O[C@H](O[C@H]2[C@@H](O)[C@H](O[C@@H]3[C@@H](O)[C@H](N)C[C@H](N)[C@H]3O[C@H]3O[C@H](CN)[C@@H](O)[C@H](O)[C@H]3N)O[C@@H]2CNC(=S)NCCCCCCCCCCNC(=S)NCc2ccc3c(c2)C(=O)c2ccccc2C3=O)[C@H](N)[C@@H](O)[C@@H]1O	–
–	CN1/C(=C/c2cc[n+](CCCCC(=O)NCCSC[C@H]3O[C@@H](O[C@@H]4[C@@H](O)[C@H](N)C[C@H](N)[C@H]4O[C@H]4O[C@H](CN)[C@@H](O)[C@H](O)[C@H]4N)[C@H](O)[C@@H]3O[C@H]3O[C@@H](CN)[C@@H](O)[C@H](O)[C@H]3N)c3ccccc23)Sc2ccccc21	Activity [3]: Active; K (Homo sapiens [4]): 9.3 ×10⁶ /M; K (Homo sapiens [5]): 9.6 ×10⁷ /M; Selectivity ratio (Homo sapiens [6]): 10
inactive	NC[C@@H]1O[C@H](O[C@H]2[C@@H](O)[C@H](O[C@@H]3[C@@H](O)[C@H](N)C[C@H](N)[C@H]3O[C@H]3O[C@H](CN)[C@@H](O)[C@H](O)[C@H]3N)O[C@@H]2CSCCNC(=S)NCc2ccc3c(c2)C(=O)c2ccccc2C3=O)[C@H](N)[C@@H](O)[C@@H]1O	–
inactive	NC[C@@H]1O[C@H](O[C@H]2[C@@H](O)[C@H](O[C@@H]3[C@@H](O)[C@H](N)C[C@H](N)[C@H]3O[C@H]3O[C@H](CN)[C@@H](O)[C@H](O)[C@H]3N)O[C@@H]2CSCCNC(=S)NCCCCCCCCCCNC(=S)NCc2ccc3c(c2)C(=O)c2ccccc2C3=O)[C@H](N)[C@@H](O)[C@@H]1O	–
inactive	NC[C@@H]1O[C@H](O[C@H]2[C@@H](O)[C@H](O[C@@H]3[C@@H](O)[C@H](N)C[C@H](N)[C@H]3O[C@H]3O[C@H](CN)[C@@H](O)[C@H](O)[C@H]3N)O[C@@H]2CSCCNC(=S)NCCCOCCCCOCCCNC(=S)NCc2ccc3c(c2)C(=O)c2ccccc2C3=O)[C@H](N)[C@@H](O)[C@@H]1O	–
